Reference: patent US20130150376A1, “Novel Sultam Compounds” (PFIZER INC., priority 2010, published 2013)
Like-named read-outs stand apart in the source and are kept apart here.

Biological target: T1, BACE1 enzyme (soluble, truncated BACE enzyme, BACE1deltaTM96His) (Homo sapiens, UniProt P56817)
T1 construct: soluble, truncated BACE enzyme (BACE1deltaTM96His); His; made in house
Test: BACE1 Fluorescent Polarization (FP) Assay
Assay type: biochemical
Settings: geometric mean of 2-4 IC50 determinations unless footnoted (^2: 5-6 determinations; ^4: single determination)
In short: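 Soluble truncated His-tagged BACE1 (BACE1deltaTM96His, from CHO-K1 conditioned media; 0.1 nM final) with biotinylated Oregon green peptide substrate (150 nM final), in 100 mM sodium acetate pH 4.5, 0.001% Tween-20. Compounds in ½ log series from 100 μM top; 3 h at 37° C. Stopped with streptavidin; cleavage read as Δ mP fluorescence polarization (Ex485/Em530).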

[1] = 11-point curve, read-out: BACE activity, 11-point curve, IC50

T1 sequence (P56817 46-457): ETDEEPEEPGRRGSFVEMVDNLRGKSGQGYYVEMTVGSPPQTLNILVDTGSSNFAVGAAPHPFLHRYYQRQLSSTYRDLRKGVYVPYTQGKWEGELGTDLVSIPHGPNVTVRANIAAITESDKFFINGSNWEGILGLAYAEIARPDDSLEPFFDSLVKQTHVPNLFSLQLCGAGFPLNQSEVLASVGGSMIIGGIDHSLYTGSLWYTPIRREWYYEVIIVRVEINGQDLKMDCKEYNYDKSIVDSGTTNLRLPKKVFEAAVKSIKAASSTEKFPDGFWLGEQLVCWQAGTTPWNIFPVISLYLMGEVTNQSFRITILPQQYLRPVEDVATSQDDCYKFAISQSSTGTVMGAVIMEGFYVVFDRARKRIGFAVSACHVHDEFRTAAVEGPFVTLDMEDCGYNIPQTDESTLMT

SMILES | IC50 (8-point curve, read-out: BACE activity, 8-point curve, IC50) [nM] | IC50 [1] [nM]
Cc1scnc1-c1cc(CN2CC[C@]3(CCS(=O)(=O)N3c3cnccn3)C[C@@H]2C)ccc1O [Example 89, 4-{[(5R,7S)-7-methyl-2,2-dioxido-1-(pyrazin-2-yl)-2-thia-1,8-diazaspiro[4.5]dec-8-yl]methyl}-2-(5-methyl-1,3-thiazol-4-yl)phenol] | 64.9 | 1230
Cc1scnc1-c1cc(CN2CC[C@]3(CCS(=O)(=O)N3c3ccccn3)C[C@@H]2C)ccc1O [Example 90, 4-{[(5R,7S)-7-methyl-2,2-dioxido-1-(pyridin-2-yl)-2-thia-1,8-diazaspiro[4.5]dec-8-yl]methyl}-2-(5-methyl-1,3-thiazol-4-yl)phenol] |  | 3280
Cc1csnc1-c1cc(CN2CC[C@]3(CCS(=O)(=O)N3c3ccccn3)C[C@@H]2C)ccc1O [Example 91, 4-{[(5R,7S)-7-methyl-2,2-dioxido-1-(pyridin-2-yl)-2-thia-1,8-diazaspiro[4.5]dec-8-yl]methyl}-2-(4-methylisothiazol-3-yl)phenol] |  | 763
C[C@H]1C[C@]2(CCN1Cc1ccc(O)c(C3CCC3)c1)CCS(=O)(=O)N2c1ccccn1 [Example 92, 2-cyclobutyl-4-{[(5R,7S)-7-methyl-2,2-dioxido-1-(pyridin-2-yl)-2-thia-1,8-diazaspiro[4.5]dec-8-yl]methyl}phenol] |  | 4190
